What was measured:
Assay in all cases: relative viability (nuclei count vs DMSO), 5 days (fraction); higher = more cells survive
XMD14-99 + Lapatinib = compound: CN1CCN(CC1)C2=CC(=C(C=C2)NC3=NC(=C(S3)C(=O)C4=C(C=CC=C4Cl)Cl)N)OC [XMD14-99] + CS(=O)(=O)CCNCc1ccc(-c2ccc3ncnc(Nc4ccc(OCc5cccc(F)c5)c(Cl)c4)c3c2)o1 [Lapatinib] (partner 2 µM)
Summary of the method: (§1)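 Relative viability equals treated-well nuclei counts divided by vehicle-well nuclei counts. Counts came from 4× images of lung cancer cell lines grown in 1536-well plates for 5 days after pin-tool dosing on the day after seeding. Dosing used one drug alone or a fixed anchor-drug dose plus five library-drug doses (not always all listed) in √10 steps, and values are medians of duplicate plates.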

XMD14-99 + Navitoclax = compound: CN1CCN(CC1)C2=CC(=C(C=C2)NC3=NC(=C(S3)C(=O)C4=C(C=CC=C4Cl)Cl)N)OC [XMD14-99] + CC1(C)CCC(c2ccc(Cl)cc2)=C(CN2CCN(c3ccc(C(=O)NS(=O)(=O)c4ccc(N[C@H](CCN5CCOCC5)CSc5ccccc5)c(S(=O)(=O)C(F)(F)F)c4)cc3)CC2)C1 [Navitoclax] (partner 0.5 µM)
Summary of the method: as §1

AZD1208 + Luminespib = compound: N[C@@H]1CCCN(c2c(/C=C3\SC(=O)NC3=O)cccc2-c2ccccc2)C1 [AZD1208] + CCNC(=O)c1noc(-c2cc(C(C)C)c(O)cc2O)c1-c1ccc(CN2CCOCC2)cc1 [Luminespib] (partner 0.01 µM)
Summary of the method: as §1

AZD1208 + Dasatinib = compound: N[C@@H]1CCCN(c2c(/C=C3\SC(=O)NC3=O)cccc2-c2ccccc2)C1 [AZD1208] + Cc1nc(Nc2ncc(C(=O)Nc3c(C)cccc3Cl)s2)cc(N2CCN(CCO)CC2)n1 [Dasatinib] (partner 0.075 µM)
Summary of the method: as §1

| Cell Line | relative viability (XMD14-99 + Lapatinib; first compound 0.08 µM) | relative viability (XMD14-99 + Lapatinib; first compound 0.8 µM) | relative viability (XMD14-99 + Lapatinib; first compound 2.53 µM) | relative viability (XMD14-99 + Lapatinib; first compound 8 µM) | relative viability (XMD14-99 + Navitoclax; first compound 0.08 µM) | relative viability (XMD14-99 + Navitoclax; first compound 0.8 µM) | relative viability (XMD14-99 + Navitoclax; first compound 2.53 µM) | relative viability (XMD14-99 + Navitoclax; first compound 8 µM) | relative viability (AZD1208 + Luminespib; first compound 0.08 µM) | relative viability (AZD1208 + Luminespib; first compound 0.253 µM) | relative viability (AZD1208 + Luminespib; first compound 0.8 µM) | relative viability (AZD1208 + Luminespib; first compound 2.53 µM) | relative viability (AZD1208 + Luminespib; first compound 8 µM) | relative viability (AZD1208 + Dasatinib; first compound 0.08 µM) | relative viability (AZD1208 + Dasatinib; first compound 0.253 µM) | relative viability (AZD1208 + Dasatinib; first compound 0.8 µM) | relative viability (AZD1208 + Dasatinib; first compound 2.53 µM) | relative viability (AZD1208 + Dasatinib; first compound 8 µM) |
| --- | --- | --- | --- | --- | --- | --- | --- | --- | --- | --- | --- | --- | --- | --- | --- | --- | --- | --- |
| HARA | 0.701 | 1.03 | 0.647 | 0.362 | 1.15 | 1.18 | 1.17 | 1.02 | 0.558 | 1.1 | 0.0617 | 0.81 | 0.777 | 0.284 | 0.273 | 0.236 | 0.261 | 0.284 |
| PC-14 | 0.328 | 0.303 | 0.262 | 0.216 | 0.983 | 0.902 | 0.943 | 0.726 | 0.142 | 0.151 | 0.139 | 0.163 | 0.181 | 0.268 | 0.257 | 0.201 | 0.198 | 0.169 |
| NCI-H1755 | 1.08 | 1.01 | 0.955 | 0.827 | 1.02 | 0.972 | 0.926 | 0.809 | 0.357 | 0.282 | 0.494 | 0.565 | 0.269 | 0.422 | 0.407 | 0.345 | 0.339 | 0.209 |
| HCC-78 | 0.911 | 0.751 | 0.858 | 0.648 | 0.657 | 0.729 | 0.794 | 0.622 | – | – | – | – | – | 0.421 | 0.439 | 0.328 | 0.35 | 0.34 |
| IA-LM | 0.821 | 0.603 | 0.511 | 0.301 | 0.732 | 0.56 | 0.449 | 0.295 | – | – | – | – | – | – | – | – | – | – |
| NCI-H441 | – | – | – | – | 0.575 | 0.556 | 0.724 | 0.569 | 0.393 | 0.331 | 0.26 | 0.342 | 0.265 | 0.593 | 0.486 | 0.425 | 0.55 | 0.437 |
| NCI-H322M | 0.573 | 0.583 | 0.609 | 0.598 | 1.15 | 1.27 | 1.33 | 1.08 | 0.784 | 0.767 | 0.794 | 0.803 | 0.88 | 0.261 | 0.235 | 0.23 | 0.224 | 0.228 |
| NCI-H1993 | 0.881 | 0.767 | 0.749 | 0.745 | 0.978 | 0.922 | 0.796 | 0.694 | 0.522 | 0.561 | 0.692 | 0.566 | 0.523 | 0.507 | 0.519 | 0.54 | 0.536 | 0.459 |
| NCI-H661 | 0.391 | 0.521 | 0.425 | 0.402 | – | – | – | – | 0.977 | 1.02 | 0.955 | 0.939 | 0.998 | 0.95 | 0.98 | 0.864 | 0.777 | 0.902 |
| NCI-H650 | 0.92 | 0.956 | 0.663 | 0.774 | – | – | – | – | 0.865 | 0.768 | 0.789 | 0.757 | 0.819 | 0.509 | 0.451 | 0.385 | 0.379 | 0.338 |
| ChaGo-K-1 | – | – | – | – | 1.05 | 1.06 | 0.908 | 0.745 | 0.676 | 0.655 | 0.596 | 0.528 | 0.392 | 0.657 | 0.624 | 0.518 | 0.539 | 0.514 |
| NCI-H522 | – | – | – | – | – | – | – | – | 1.03 | 1.15 | 0.841 | 0.935 | 0.973 | 0.828 | 0.774 | 0.911 | 0.78 | 0.717 |
| NCI-H1299 | 0.924 | 0.925 | 0.925 | 0.813 | 1.08 | 1.03 | 0.994 | 0.825 | – | – | – | – | – | – | – | – | – | – |
| NCI-H2342 | – | – | – | – | – | – | – | – | 0.686 | 0.713 | 0.653 | 0.672 | 0.533 | 0.284 | 0.354 | 0.28 | 0.3 | 0.267 |
| SW 900 | – | – | – | – | – | – | – | – | 0.191 | 0.172 | 0.167 | 0.185 | 0.162 | 0.456 | 0.693 | 0.427 | 0.547 | 0.367 |
| HCC-366 | 1.06 | 1.06 | 1.13 | 0.854 | 1.01 | 1.03 | 0.986 | 0.863 | – | – | – | – | – | 0.625 | 0.64 | 0.479 | 0.493 | 0.287 |
| A549 | 0.857 | 0.923 | 0.983 | 0.685 | 1.14 | 1.13 | 1.03 | 0.724 | – | – | – | – | – | – | – | – | – | – |
| NCI-H1563 | 0.85 | 1.1 | 0.906 | 0.824 | – | – | – | – | 0.556 | 0.532 | 0.561 | 0.478 | 0.504 | 0.465 | 0.433 | 0.421 | 0.447 | 0.395 |
| ABC-1 | 1.05 | 1.18 | 1.17 | 1.05 | – | – | – | – | 0.564 | 0.632 | 0.415 | 0.383 | 0.632 | 0.667 | 0.509 | 0.522 | 0.69 | 0.563 |
| LCLC-103H | – | – | – | – | – | – | – | – | 1.01 | 1.01 | 0.995 | 0.859 | 0.944 | 0.448 | 0.501 | 0.421 | 0.448 | 0.33 |
